The subject of this assay is DLD-1 BRCA2−/− cells. The experiment in a line: Homologous recombination synthetic lethal inhibition of proliferation, DLD-1 BRCA2-/- (Cell Titre Glo 3D). Particulars: Homo sapiens. Format: cell-based. An outline of the steps: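 Read-out: CellTiter-Glo 3D luminescence, day 7 for wt DLD-1, day 12 for BRCA2−/−, about 8-9 population doublings each. Seeding 1,500 or 3,000 cells/mL respectively. Dose range 10 μM–0.51 nM, 3-fold, 10 points, with re-dosing on day 6. IC50 from curve fit.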

The mark [1] stands for this setting: DLD-1, DLD-1 BRCA2-/- proliferation, column head only partly shown, read-out: POLQ PD Prolif Lumin (converted).
Setting [2] is: DLD-1, proliferation, luminescence, taken as DLD-1 BRCA2-/-, read-out: POLQ PD Prolif Lumin (converted).
[3] abbreviates: DLD-1, first proliferation column (c5), DLD-1 BRCA2-/-, read-out: POLQ PD Prolif Lumin (converted).
Where [4] appears, read: DLD-1, DLD-1 BRCA2 −/− cells, mean, read-out: POLQ PD Prolif Lumin BRCA2 −/− mean pIC50 (converted).
Where [5] appears, read: DLD-1, first proliferation column (c5), taken as DLD-1 BRCA2-/-, read-out: POLQ PD Prolif Lumin (converted).
[6] abbreviates: DLD-1, first proliferation column, DLD-1 BRCA2-/-, read-out: POLQ PD Prolif Lumin (converted).

Results on 27 compounds are retold here after US20250195530A1, “POLQ INHIBITORS” (ASTRAZENECA AB, priority 2022, published 2025).

Where two headings read alike, the source gives them in different places.

As to `CC(CCOc1ccc(-c2nc3c(OC4(C)CC4)ncnc3n2Cc2ccc(F)c(Cl)c2)c(Cl)c1)C(=O)O` (racemic) [Example T269, 4-(3-chloro-4-(9-(3-chloro-4-fluorobenzyl)-6-(1-methylcyclopropoxy)-9H-purin-8-yl)phenoxy)-2-methylbutanoic acid], under setting [1], the IC50 is 1260 nM.

Regarding `Cc1ccnc(Cn2c(-c3ccc(C(=O)N4CCC[C@@H]4CO)cc3Cl)nc3c(OC4(C)CC4)ncnc32)c1` [Example T459, (R)-(3-chloro-4-(6-(1-methylcyclopropoxy)-9-((4-methylpyridin-2-yl)methyl)-9H-purin-8-yl)phenyl)(2-(hydroxymethyl)pyrrolidin-1-yl)methanone], under setting [2], the IC50 is 1260 nM.

For `CNC(=O)Cc1ccc(-c2nc3c(OC4(C)CC4)ncnc3n2Cc2cc(C)ccn2)c(Cl)c1` [Example T113, 2-(3-chloro-4-(6-(1-methylcyclopropoxy)-9-((4-methylpyridin-2-yl)methyl)-9H-purin-8-yl)phenyl)-N-methylacetamide], the IC50 under setting [3] is 316 nM.

As for `Cc1ccnc(Cn2c(-c3ccc(OC4CCNC4=O)cc3Cl)nc3c(OC4(C)CC4)ncnc32)c1` (racemic) [Example T178, 3-(3-chloro-4-(6-(1-methylcyclopropoxy)-9-((4-methylpyridin-2-yl)methyl)-9H-purin-8-yl)phenoxy)pyrrolidin-2-one], the IC50 under setting [3] was 501 nM.

Turning to `CC1(Oc2ncnc3c2nc(-c2ccc(CC(N)=O)cc2Cl)n3CCc2nccs2)CC1` [Example T7, 2-(3-chloro-4-(6-(1-methylcyclopropoxy)-9-(2-(thiazol-2-yl)ethyl)-9H-purin-8-yl)phenyl)acetamide], the IC50 under setting [4] is greater than 10000 nM.

With `CC(CCOc1ccc(-c2nc3c(OC4(C)CC4)ncnc3n2Cc2cccc(C(C)(F)F)c2)c(Cl)c1)C(=O)O` (single isomer, unassigned) [Example T545, 4-(3-chloro-4-(9-(3-(1,1-difluoroethyl)benzyl)-6-(1-methylcyclopropoxy)-9H-purin-8-yl)phenoxy)-2-methylbutanoic acid], under setting [3], the IC50 is 1000 nM.

As for `CC(CCOc1ccc(-c2nc3c(OC4(C)CC4)ncnc3n2Cc2cccc(F)c2F)c(Cl)c1)C(=O)O` (single isomer, unassigned) [Example T261, 4-(3-chloro-4-(9-(2,3-difluorobenzyl)-6-(1-methylcyclopropoxy)-9H-purin-8-yl)phenoxy)-2-methylbutanoic acid], under setting [1], the IC50 is 631 nM.

As for `COC(=O)CCOc1ccc(-c2nc3c(OC4(C)CC4)ncnc3n2Cc2cccc(Cl)c2)c(Cl)c1` [Example T156, methyl 3-(3-chloro-4-(9-(3-chlorobenzyl)-6-(1-methylcyclopropoxy)-9H-purin-8-yl)phenoxy)propanoate], the IC50 under setting [3] was 200 nM.

Regarding `CC(CCOc1ccc(-c2nc3c(OC4(C)CC4)ncnc3n2Cc2c(F)cccc2F)c(Cl)c1)C(=O)O` (single isomer, unassigned) [Example T263, 4-(3-chloro-4-(9-(2,6-difluorobenzyl)-6-(1-methylcyclopropoxy)-9H-purin-8-yl)phenoxy)-2-methylbutanoic acid], under setting [1], the IC50 is 794 nM.

In the case of `COc1cccc(Cn2c(-c3ccc(OCCC(C)C(=O)O)cc3Cl)nc3c(OC4(C)CC4)ncnc32)c1` (single isomer, unassigned) [Example T455, 4-(3-chloro-4-(9-(3-methoxybenzyl)-6-(1-methylcyclopropoxy)-9H-purin-8-yl)phenoxy)-2-methylbutanoic acid], under setting [2], the IC50 was 1580 nM.

Consider `Cc1ccnc(Cn2c(-c3ccc(CC(=O)N4CC5(CNC5)C4)cc3Cl)nc3c(OC4(C)CC4)ncnc32)c1` [Example T558, 2-(3-chloro-4-(6-(1-methylcyclopropoxy)-9-((4-methylpyridin-2-yl)methyl)-9H-purin-8-yl)phenyl)-1-(2,6-diazaspiro[3.3]heptan-2-yl)ethan-1-one], for which, under setting [3], the IC50 is greater than 10000 nM.

For the compound `Cc1ccnc(Cn2c(-c3ccc(NCCN(C)C)cc3Cl)nc3c(OC4(C)CC4)ncnc32)c1` [Example T247, N1-(3-chloro-4-(6-(1-methylcyclopropoxy)-9-((4-methylpyridin-2-yl)methyl)-9H-purin-8-yl)phenyl)-N2,N2-dimethylethane-1,2-diamine], under setting [1], the IC50 is 501 nM.

As to `Cc1ccnc(Cn2c(-c3ccc(OC[C@H]4CCO4)cc3Cl)nc3c(OC4(C)CC4)ncnc32)c1` [Example T194, (R)-8-(2-chloro-4-(oxetan-2-ylmethoxy)phenyl)-6-(1-methylcyclopropoxy)-9-((4-methylpyridin-2-yl)methyl)-9H-purine], the IC50 under setting [3] was 251 nM.

For `Cc1ccnc(Cn2c(-c3ccc(O[C@H]4CNC(=O)C4)cc3Cl)nc3c(OC4(C)CC4)ncnc32)c1` [Example T183, (R)-4-(3-chloro-4-(6-(1-methylcyclopropoxy)-9-((4-methylpyridin-2-yl)methyl)-9H-purin-8-yl)phenoxy)pyrrolidin-2-one], under setting [3], the IC50 is 398 nM.

`CC1(Oc2ncnc3c2nc(-c2ccc(CC(N)=O)cc2Cl)n3CCc2ccccc2)CC1` [Example T102, 2-(3-chloro-4-(6-(1-methylcyclopropoxy)-9-phenethyl-9H-purin-8-yl)phenyl)acetamide]: the IC50 under setting [4] was 1580 nM.

Regarding `Cc1ccnc(Cn2c(-c3ccc(OCC(=O)NCCCO)cc3Cl)nc3c(OC4(C)CC4)ncnc32)c1` [Example T373, 2-(3-chloro-4-(6-(1-methylcyclopropoxy)-9-((4-methylpyridin-2-yl)methyl)-9H-purin-8-yl)phenoxy)-N-(3-hydroxypropyl)acetamide], the IC50 under setting [5] is 316 nM.

Take `CC(CCc1ccc(-c2nc3c(OC4(C)CC4)ncnc3n2Cc2cccc(Cl)c2)c(Cl)c1)C(=O)O` (racemic) [Example T290, 4-(3-chloro-4-(9-(3-chlorobenzyl)-6-(1-methylcyclopropoxy)-9H-purin-8-yl)phenyl)-2-methylbutanoic acid]: the IC50 under setting [1] was 251 nM.

As to `CC(CCOc1ccc(-c2nc3c(OC4(C)CC4)ncnc3n2Cc2cccc(Cl)c2C#N)c(Cl)c1)C(=O)O` (racemic) [Example U37, 4-(3-chloro-4-(9-(3-chloro-2-cyanobenzyl)-6-(1-methylcyclopropoxy)-9H-purin-8-yl)phenoxy)-2-methylbutanoic acid], the IC50 (DLD-1, DLD-1 BRCA2 −/−, mean, read-out: POLQ PD Prolif Lumin BRCA2 −/− mean pIC50 (converted)) was 2000 nM.

For the compound `COC1(COc2ccc(-c3nc4c(OC5(C)CC5)ncnc4n3Cc3cc(C)ccn3)c(Cl)c2)COC1` [Example T333, 8-(2-chloro-4-((3-methoxyoxetan-3-yl)methoxy)phenyl)-6-(1-methylcyclopropoxy)-9-((4-methylpyridin-2-yl)methyl)-9H-purine], the IC50 under setting [5] was 251 nM.

`CC1(Oc2ncnc3c2nc(-c2ccc(OCCN4C[C@H]5CC[C@@H]4CN5)cc2Cl)n3Cc2ccccc2)CC1` (relative stereo) [Example T604, rel-(1R,4R)-2-(2-(4-(9-benzyl-6-(1-methylcyclopropoxy)-9H-purin-8-yl)-3-chlorophenoxy)ethyl)-2,5-diazabicyclo[2.2.2]octane]: under setting [6], the IC50 is 251 nM.

Take `Cc1ccnc(Cn2c(-c3ccc(C(=O)N(C)CCO)cc3Cl)nc3c(OC4(C)CC4)ncnc32)c1` [Example T220, 3-chloro-N-(2-hydroxyethyl)-N-methyl-4-(6-(1-methylcyclopropoxy)-9-((4-methylpyridin-2-yl)methyl)-9H-purin-8-yl)benzamide]: the IC50 under setting [1] was 3160 nM.

Take `Cc1ccnc(Cn2c(-c3ccc(OCC(=O)N4CCC[C@H](F)C4)cc3Cl)nc3c(OC4(C)CC4)ncnc32)c1` [Example T552, (S)-2-(3-chloro-4-(6-(1-methylcyclopropoxy)-9-((4-methylpyridin-2-yl)methyl)-9H-purin-8-yl)phenoxy)-1-(3-fluoropiperidin-1-yl)ethan-1-one]: the IC50 under setting [3] was 158 nM.

For `Cc1ccnc(Cn2c(-c3ccc(OC[C@@H]4CNC(=O)CO4)cc3Cl)nc3c(OC4(C)CC4)ncnc32)c1` [Example T324, (S)-6-((3-chloro-4-(6-(1-methylcyclopropoxy)-9-((4-methylpyridin-2-yl)methyl)-9H-purin-8-yl)phenoxy)methyl)morpholin-3-one], the IC50 under setting [5] was 398 nM.

`CC(CCOc1ccc(-c2nc3c(OC4(C)CC4)ncnc3n2Cc2cccc(Cl)c2F)c(Cl)c1)C(=O)O` (racemic) [Example T267, 4-(3-chloro-4-(9-(3-chloro-2-fluorobenzyl)-6-(1-methylcyclopropoxy)-9H-purin-8-yl)phenoxy)-2-methylbutanoic acid]: under setting [1], the IC50 is 398 nM.

`CNC(=O)Nc1ccc(-c2nc3c(OC4(C)CC4)ncnc3n2Cc2cc(C)ccn2)c(Cl)c1` [Example T66, 1-(3-chloro-4-(6-(1-methylcyclopropoxy)-9-((4-methylpyridin-2-yl)methyl)-9H-purin-8-yl)phenyl)-3-methylurea]: the IC50 under setting [4] is 398 nM.

With `Cc1ccccc1Cn1c(-c2ccc(OCCC(=O)O)cc2Cl)nc2c(OC3(C)CC3)ncnc21` [Example T168, 3-(3-chloro-4-(9-(2-methylbenzyl)-6-(1-methylcyclopropoxy)-9H-purin-8-yl)phenoxy)propanoic acid], under setting [3], the IC50 is 1260 nM.

As for `Cc1ccnc(Cn2c(-c3ccc(OCC(=O)N4CCC[C@@H]4CO)cc3Cl)nc3c(OC4(C)CC4)ncnc32)c1` [Example T579, (R)-2-(3-chloro-4-(6-(1-methylcyclopropoxy)-9-((4-methylpyridin-2-yl)methyl)-9H-purin-8-yl)phenoxy)-1-(2-(hydroxymethyl)pyrrolidin-1-yl)ethan-1-one], the IC50 under setting [6] was 501 nM.
